One test has as its target cynomolgus Siglec-2/CD22 (Macaca fascicularis, UniProt A0A2K5WCZ6). In words: biochemical. The test is classed as binding. The conditions noted are these: SPR, steady-state analysis; read-out: Affinity cyno CD22. The protocol:
Prior to immobilization, CD22 proteins were treated with SialoExo (Genovis, Cat #G1-SM1-020) for 4 hours at 37° C. to remove native sialic acid residues.
Surface preparation for cyno CD22 protein consisted of amine coupling to Cytiva CM5 chip (Cytiva, Cat #BR100530) using the Cytiva amine coupling kit Type 2 (Cytiva, Cat #BR100633). Following the standard amine coupling protocols, EDC and NHS from the kit were mixed 1:1 and injected over flow cells 1 and 2. […] Any active carboxy groups were then capped with 1M Ethanolamine, pH 8.5 for 420s on flow cells 1 and 2.
Binding experiments of Siglec-ligand conjugated proteins or Siglec ligand compounds were performed on the surfaces prepared above in 10 mM HEPES, 150 mM NaCl, 0.05% Tween-20, pH 7.5, 1% DMSO as the running buffer. […] The compounds were then allowed to dissociate from the surface for 120 seconds. […] Solvent correction was performed using 0.5, 1, 1.5, and 2% DMSO spike into running buffer without DMSO. […] Data was analyzed using steady-state analysis in Biacore Insight Evaluation Software, version 3.0 for Siglec ligand compounds.

Test [1] addresses T1, human Siglec-2/CD22 protein (Homo sapiens, UniProt P20273).
T1 construct: purchased Acro Biosystems SI2-H82E3
T1 sequence (P20273 20-847): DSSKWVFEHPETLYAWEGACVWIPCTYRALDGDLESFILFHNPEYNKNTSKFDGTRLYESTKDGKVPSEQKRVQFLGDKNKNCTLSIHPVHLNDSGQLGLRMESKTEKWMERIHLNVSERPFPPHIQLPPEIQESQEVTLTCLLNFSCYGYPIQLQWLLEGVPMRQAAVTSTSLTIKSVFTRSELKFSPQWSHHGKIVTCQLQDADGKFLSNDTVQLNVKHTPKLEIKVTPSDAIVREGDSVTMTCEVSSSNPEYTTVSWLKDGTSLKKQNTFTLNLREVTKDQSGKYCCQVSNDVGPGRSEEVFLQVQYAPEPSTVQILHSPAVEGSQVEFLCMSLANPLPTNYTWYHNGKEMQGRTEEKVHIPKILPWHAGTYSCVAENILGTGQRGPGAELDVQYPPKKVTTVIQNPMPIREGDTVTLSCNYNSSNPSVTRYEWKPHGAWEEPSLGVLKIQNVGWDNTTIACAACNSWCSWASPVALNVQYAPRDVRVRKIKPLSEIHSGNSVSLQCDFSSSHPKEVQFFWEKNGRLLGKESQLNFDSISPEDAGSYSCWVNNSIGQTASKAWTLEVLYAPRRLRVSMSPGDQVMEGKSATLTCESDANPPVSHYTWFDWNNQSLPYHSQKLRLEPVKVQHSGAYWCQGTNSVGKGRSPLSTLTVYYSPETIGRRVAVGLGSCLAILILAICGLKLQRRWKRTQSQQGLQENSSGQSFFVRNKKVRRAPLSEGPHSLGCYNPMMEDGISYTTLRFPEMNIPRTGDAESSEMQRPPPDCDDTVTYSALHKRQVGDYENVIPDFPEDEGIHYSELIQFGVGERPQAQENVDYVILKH
Kind of test: SPR binding affinity to human CD22. The conditions noted are these: steady-state analysis. Summed up:
(§1)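 SialoExo pretreatment, 4 h 37° C.; biotinylated CD22 on SA chip, Biacore 8K. Buffer 10 mM HEPES, 150 mM NaCl, 0.05% Tween-20, pH 7.5, 1% DMSO. Dissociation 120 s; solvent-corrected; steady-state KD.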

Test [2] has as its target T2, mouse Siglec-2-Fc-Avi (CD22) (Mus musculus, UniProt P35329).
T2 construct: made in house
T2 sequence (P35329 22-708 limits assumed): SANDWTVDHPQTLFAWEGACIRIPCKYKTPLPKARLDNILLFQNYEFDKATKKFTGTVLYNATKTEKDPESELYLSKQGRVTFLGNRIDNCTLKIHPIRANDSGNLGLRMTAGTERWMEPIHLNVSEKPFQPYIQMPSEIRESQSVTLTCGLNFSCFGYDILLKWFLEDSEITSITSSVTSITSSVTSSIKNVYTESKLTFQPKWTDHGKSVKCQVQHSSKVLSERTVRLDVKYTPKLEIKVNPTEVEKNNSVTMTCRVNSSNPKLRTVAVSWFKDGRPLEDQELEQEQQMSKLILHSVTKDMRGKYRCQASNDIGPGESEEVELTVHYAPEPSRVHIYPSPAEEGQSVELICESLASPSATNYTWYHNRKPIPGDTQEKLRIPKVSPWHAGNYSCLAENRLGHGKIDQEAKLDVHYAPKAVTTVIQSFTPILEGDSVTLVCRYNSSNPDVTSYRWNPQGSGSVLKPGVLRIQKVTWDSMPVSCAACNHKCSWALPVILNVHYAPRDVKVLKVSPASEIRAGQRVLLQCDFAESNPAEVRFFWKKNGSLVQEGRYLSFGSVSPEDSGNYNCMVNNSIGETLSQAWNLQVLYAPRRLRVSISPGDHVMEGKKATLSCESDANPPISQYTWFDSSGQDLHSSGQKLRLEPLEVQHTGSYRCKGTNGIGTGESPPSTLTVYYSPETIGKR
Kind of test: SPR binding affinity to mouse CD22. The conditions noted are these: steady-state analysis. Summed up: as §1

Each structure is given as a SMILES string.

Sequence of cynomolgus Siglec-2/CD22 (A0A2K5WCZ6 entry or part of it): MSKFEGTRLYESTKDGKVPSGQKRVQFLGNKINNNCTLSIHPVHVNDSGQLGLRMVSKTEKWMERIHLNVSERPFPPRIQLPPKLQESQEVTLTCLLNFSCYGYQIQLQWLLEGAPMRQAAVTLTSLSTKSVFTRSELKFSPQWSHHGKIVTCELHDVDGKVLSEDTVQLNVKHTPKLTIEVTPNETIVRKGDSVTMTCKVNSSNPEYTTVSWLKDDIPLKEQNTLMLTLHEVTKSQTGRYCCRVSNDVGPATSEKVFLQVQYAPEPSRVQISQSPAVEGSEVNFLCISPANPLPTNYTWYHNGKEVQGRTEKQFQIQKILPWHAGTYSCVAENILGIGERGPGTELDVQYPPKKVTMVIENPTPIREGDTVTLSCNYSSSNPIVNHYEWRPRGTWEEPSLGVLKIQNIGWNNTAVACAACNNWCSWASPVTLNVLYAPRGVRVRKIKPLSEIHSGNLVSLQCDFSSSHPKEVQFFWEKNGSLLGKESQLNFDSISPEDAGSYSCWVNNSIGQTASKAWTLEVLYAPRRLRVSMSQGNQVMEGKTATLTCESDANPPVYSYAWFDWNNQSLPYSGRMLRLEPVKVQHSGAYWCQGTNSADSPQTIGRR

`C#CCCOc1ccc(CO[C@]2(C(=O)O)C[C@H](O)[C@@H](NC(=O)CO)[C@H]([C@H](O)[C@H](O)CNC(=O)Cc3ccc4cn[nH]c4c3)O2)cc1` [Compound 10, (2R,4S,5R,6R)-6-((1R,2R)-3-(2-(1H-indazol-6-yl)acetamido)-1,2-dihydroxypropyl)-2-((4-(but-3-yn-1-yloxy)benzyl)oxy)-4-hydroxy-5-(2-hydroxyacetamido)tetrahydro-2H-pyran-2-carboxylic acid]: the Kd (on cynomolgus Siglec-2/CD22; in test [1]; in test [2]) was 1 to 10 µM throughout.
For the molecule `C#CCOCCOCCO[C@]1(C(=O)O)C[C@H](O)[C@@H](NC(=O)CO)[C@H]([C@H](O)[C@H](O)CNC(=O)Cc2ccc3c(c2)CC(=O)N3)O1` [Compound 11, (2R,4S,5R,6R)-6-((1R,2R)-1,2-dihydroxy-3-(2-(2-oxoindolin-5-yl)acetamido)propyl)-4-hydroxy-5-(2-hydroxyacetamido)-2-(2-(2-(prop-2-yn-1-yloxy)ethoxy)ethoxy)tetrahydro-2H-pyran-2-carboxylic acid], the results for the Kd (at cynomolgus Siglec-2/CD22; in test [1]; in test [2]) were greater than 10 µM, 1 to 10 µM and greater than 10 µM, respectively.
`C#CCOCCOCCO[C@]1(C(=O)O)C[C@H](O)[C@@H](NC(=O)CO)[C@H]([C@H](O)[C@H](O)CNC(=O)CCCCCCCCCCCCCCC)O1` [Compound 13, (2R,4S,5R,6R)-6-((1R,2R)-1,2-dihydroxy-3-palmitamidopropyl)-4-hydroxy-5-(2-hydroxyacetamido)-2-(2-(2-(prop-2-yn-1-yloxy)ethoxy)ethoxy)tetrahydro-2H-pyran-2-carboxylic acid]: the Kd (at cynomolgus Siglec-2/CD22; in test [1]; in test [2]) was greater than 10 µM in each case.
As to `C#CCOCCOCCO[C@]1(C(=O)O)C[C@H](O)[C@@H](NC(=O)CO)[C@H]([C@H](O)[C@H](O)CNC(=O)C[C@H]2CC[C@H](O)CC2)O1` [Compound 14, (2R,4S,5R,6R)-6-((1R,2R)-1,2-dihydroxy-3-(2-((1r,4R)-4-hydroxycyclohexyl)acetamido)propyl)-4-hydroxy-5-(2-hydroxyacetamido)-2-(2-(2-(prop-2-yn-1-yloxy)ethoxy)ethoxy)tetrahydro-2H-pyran-2-carboxylic acid], the Kd at cynomolgus Siglec-2/CD22 was greater than 10 µM; in test [1], greater than 10 µM; in test [2] it was 1 to 10 µM.
With `C#CCOCCOCCO[C@]1(C(=O)O)C[C@H](O)[C@@H](NC(=O)CO)[C@H]([C@H](O)[C@H](O)CNC(=O)CC)O1` [Compound 15, (2R,4S,5R,6R)-6-((1R,2R)-1,2-dihydroxy-3-propionamidopropyl)-4-hydroxy-5-(2-hydroxyacetamido)-2-(2-(2-(prop-2-yn-1-yloxy)ethoxy)ethoxy)tetrahydro-2H-pyran-2-carboxylic acid], the Kd (at cynomolgus Siglec-2/CD22; in test [1]; in test [2]) was greater than 10 µM throughout.
In the case of `C#CCCOc1ccc(CO[C@]2(C(=O)O)C[C@H](O)[C@@H](NC(=O)CO)[C@H]([C@H](O)[C@H](O)CN)O2)cc1` [Compound 16, (2R,4S,5R,6R)-6-((1R,2R)-3-amino-1,2-dihydroxypropyl)-2-((4-(but-3-yn-1-yloxy)benzyl)oxy)-4-hydroxy-5-(2-hydroxyacetamido)tetrahydro-2H-pyran-2-carboxylic acid], the Kd (at cynomolgus Siglec-2/CD22; in test [1]; in test [2]) was greater than 10 µM in each case.
Consider `C#CCOCCOCCO[C@]1(C(=O)O)C[C@H](O)[C@@H](NC(=O)CO)[C@H]([C@H](O)[C@H](O)CNC(=O)c2cccc(Oc3ccc(O)cc3)c2)O1` [Compound 18, (2R,4S,5R,6R)-6-((1R,2R)-1,2-dihydroxy-3-(3-(4-hydroxyphenoxy)benzamido)propyl)-4-hydroxy-5-(2-hydroxyacetamido)-2-(2-(2-(prop-2-yn-1-yloxy)ethoxy)ethoxy)tetrahydro-2H-pyran-2-carboxylic acid], for which the Kd on cynomolgus Siglec-2/CD22 is 1 to 10 µM; in test [1], less than 1 µM; in test [2], 1 to 10 µM.
Turning to `C#CCOCCOCCO[C@]1(C(=O)O)C[C@H](O)[C@@H](NC(=O)CO)[C@H]([C@H](O)[C@H](O)CNC(=O)c2ccc(-c3ccc(O)cc3)cc2)O1` [Compound 19, (2R,4S,5R,6R)-6-((1R,2R)-1,2-dihydroxy-3-(4′-hydroxy-[1,1′-biphenyl]-4-carboxamido)propyl)-4-hydroxy-5-(2-hydroxyacetamido)-2-(2-(2-(prop-2-yn-1-yloxy)ethoxy)ethoxy)tetrahydro-2H-pyran-2-carboxylic acid], the results for the Kd (at cynomolgus Siglec-2/CD22; in test [1]; in test [2]) were 1 to 10 µM, less than 1 µM and 1 to 10 µM, respectively.
Regarding `C#CCCOc1ccc(CO[C@]2(C(=O)O)C[C@H](O)[C@@H](NC(C)=O)[C@H]([C@H](O)[C@H](O)CNC(=O)c3cccc(Oc4ccccc4)c3)O2)cc1` [Compound 22, (2R,4S,5R,6R)-5-acetamido-2-((4-(but-3-yn-1-yloxy)benzyl)oxy)-6-((1R,2R)-1,2-dihydroxy-3-(3-phenoxybenzamido)propyl)-4-hydroxytetrahydro-2H-pyran-2-carboxylic acid], the Kd was 1 to 10 µM on cynomolgus Siglec-2/CD22, less than 1 µM in test [1] and greater than 10 µM in test [2].
In the same order, the values of `C#CCCOc1cccc(CO[C@]2(C(=O)O)C[C@H](O)[C@@H](NC(C)=O)[C@H]([C@H](O)[C@H](O)CNC(=O)c3cccc(Oc4ccccc4)c3)O2)c1` [Compound 23, (2R,4S,5R,6R)-5-acetamido-2-((3-(but-3-yn-1-yloxy)benzyl)oxy)-6-((1R,2R)-1,2-dihydroxy-3-(3-phenoxybenzamido)propyl)-4-hydroxytetrahydro-2H-pyran-2-carboxylic acid] are 1 to 10 µM, 1 to 10 µM and greater than 10 µM.
As for `C#CCOC[C@H](O)[C@@H](O)CO[C@]1(C(=O)O)C[C@H](O)[C@@H](NC(=O)CO)[C@H]([C@H](O)[C@H](O)CNC(=O)Cc2ccc(Cl)cc2)O1` [Compound 24, (2R,4S,5R,6R)-6-((1R,2R)-3-(2-(4-chlorophenyl)acetamido)-1,2-dihydroxypropyl)-2-((2S,3S)-2,3-dihydroxy-4-(prop-2-yn-1-yloxy)butoxy)-4-hydroxy-5-(2-hydroxyacetamido)tetrahydro-2H-pyran-2-carboxylic acid], the Kd on cynomolgus Siglec-2/CD22 is 1 to 10 µM; in test [1], 1 to 10 µM; in test [2], greater than 10 µM.
Take `C#CCOCCCCCCO[C@]1(C(=O)O)C[C@H](O)[C@@H](NC(=O)CN(C)C)[C@H]([C@H](O)[C@H](O)CNC(=O)Cc2ccc(Cl)cc2)O1` [Compound 25, (2R,4S,5R,6R)-6-((1R,2R)-3-(2-(4-chlorophenyl)acetamido)-1,2-dihydroxypropyl)-5-(2-(dimethylamino)acetamido)-4-hydroxy-2-((6-(prop-2-yn-1-yloxy)hexyl)oxy)tetrahydro-2H-pyran-2-carboxylic acid]: the figures for the Kd (on cynomolgus Siglec-2/CD22; in test [1]; in test [2]) were 1 to 10 µM, greater than 10 µM and 1 to 10 µM, respectively.

The record behind these values is patent US20250064941A1, “SIGLEC LIGANDS, CONJUGATES, AND METHODS OF USE THEREOF” (Osprey Biopharmaceuticals, Inc., priority 2023, published 2025).
